The results in this text go back to US6506580B1, “Splice variants for human 5-HT4 serotonin receptor and their applications, in particular for screening” (Institut National de la Sante et de la Recherche Medicale …, priority 1997, dated 2003).

Experiment [1] deals with T1, receptor 5-HT4(a) (Homo sapiens, UniProt Q13639).
T1 construct: The entire coding region of the cDNAs of 5-HT4(a), 5-HT4(b), 5-HT4(c) and 5-T4(d) was subcloned; expressed in transfected cells; host or cells: COS-7 cells, transient, pRC/CMV vector
T1 sequence (Q13639 1-387 isoform Q13639-2): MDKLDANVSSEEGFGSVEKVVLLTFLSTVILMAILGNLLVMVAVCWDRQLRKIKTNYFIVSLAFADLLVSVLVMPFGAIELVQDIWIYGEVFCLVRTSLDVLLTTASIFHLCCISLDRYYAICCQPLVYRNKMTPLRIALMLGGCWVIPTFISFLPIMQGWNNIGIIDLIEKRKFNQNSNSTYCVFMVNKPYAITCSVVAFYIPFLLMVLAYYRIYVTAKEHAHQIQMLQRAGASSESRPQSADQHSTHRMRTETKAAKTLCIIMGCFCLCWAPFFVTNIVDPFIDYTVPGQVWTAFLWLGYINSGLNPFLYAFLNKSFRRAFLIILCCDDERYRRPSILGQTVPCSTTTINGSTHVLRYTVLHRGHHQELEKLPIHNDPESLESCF
In words: cAMP formation in transiently transfected COS-7 cells. It counts as cell-based. The conditions noted are these: COS-7, 1 μM agonist, 15 minutes. As to the method:
(§1) The entire coding region of the cDNAs of 5-HT4(a), 5-HT4(b), 5-HT4(c) and 5-T4(d) was subcloned into a mammalian expression vector pRC/CMV (Invitrogen, Carlsbad, Calif.). The transfections were carried out using polyethyleneimine (PEI) as described in Boussif et al. (1995). The cells were transfected using a mixture of DNA and of PEI in a ratio of 20 μmol of PEI/mg of DNA in 0.9% NaCl. For the radioligand binding assays, the COS-7 cells were seeded into culture flasks of 1.5×10^4 mm^2 one day before the transfection, at a density of 1×10^7 cells/flask, incubated for six hours with plasmid DNA (150 μg/flask) and collected 48 hours after transfection. For the measurement of cAMP formation, the COS-7 cells were seeded onto twelve-well plates one day before transfection, at a density of 5×10^5 cells/well, incubated for six hours with plasmid DNA (4 to 8 μg/well according to the experiments) and assayed 24 hours after the transfection. The cells transfected with the receptor 5-HT4 cDNA constructs were compared with the “blank”-transfected cells, which were exposed to the unmodified pRC/CMV plasmid.
(§2) To measure intracellular cAMP accumulation, the transiently transfected COS-7 cells were incubated, 24 hours after transfection, in Dulbecco's modified Eagle medium (DMEM) containing 5 mM theophylline, 10 mM HEPES and 10 μM pargyline for 15 minutes at 37° C., in the presence of 5% CO2. […] The reaction was stopped by aspiration of the medium and addition of 500 μl of ice-cold ethanol. After one hour at room temperature, the cells were scraped, and everything was collected and freeze-dried. The pellet was resuspended in 350 μl of PBS and centrifuged for 5 min at 300 g. The cAMP was quantified in the supernatant using a radioimmunological assay (E.R.I.A. assay kit from Pasteur Diagnostics 79830). Student's t tests were carried out using the program Quick TEst.

The test system of experiment [2] is “blank”-transfected COS-7 cells. In words: cAMP formation in control COS-7 cells. It counts as cell-based. The conditions noted are these: 1 μM. As for the experimental part: as §1, §2
Background: Changes in cAMP serve as a functional read-out for many G protein-coupled receptors.

Experiment [3] has as its target T1, receptor 5-HT4(a). In words: [3H]GR113808 radioligand binding, membranes of transiently transfected COS-7 cells. As to the method: as §1
(§3) Each flask of cells intended for the radioligand binding assays was washed twice with a phosphate buffer (PBS). The cells were then scraped, collected and centrifuged at 300 g for five minutes. The pellet was resuspended in 2.5 ml of ice-cold HEPES buffer (50 mM, pH 7.4) and homogenized with an Ultraturax tissue grinder. The lysate was then centrifuged at 40,000 g for 20 minutes at 4° C. The resulting pellet was resuspended in 15 volumes of HEPES buffer (50 mM, pH 7.4). The membrane preparations were maintained in ice and used within two hours for radioligand binding assays. The protein concentrations were determined by the method of Lowry et al., 1951, using bovine serum albumin as standard.
(§4) The saturation studies were performed using [^3H] GR113808 at 9 different concentrations ranging from 0.01 to 3.5 nM. The tubes were incubated at 25° C. for 30 minutes. The reaction-was stopped by rapid filtration, under vacuum, through Whatman GF/B filter paper using the Brandel 48R cell harvester. The filters were presoaked in a solution of PEI (0.1%) to reduce the binding to the filters. The filters were then washed with an ice-cold buffer (50 mM Tris-HCl, pH 7.4) and placed in 4 ml of “ready safe” scintillation cocktail (Beckman, Fullerton, Calif.) overnight. The radioactivity was measured using a Beckman LS 6500 C liquid scintillation counter. The binding data were analysed by computer-assisted nonlinear regression analysis (Graph Pad Prism Program, Graph Pad Software, Inc., San Diego, Calif.).
(§5) The experiments correspond to the competition of various compounds for [^3H]GR113808 binding to membranes of transiently transfected COS-7 cells. […] The estimations of affinity are given as Ki values in nM, and are determined from IC50 values obtained by computer-assisted nonlinear curve analysis (GraphPad, Prism Software). The Ki values are representative of at least two determinations.

The next experiment addresses T2, receptor 5-HT4(b) (Homo sapiens, UniProt Q13639).
T2 construct: The entire coding region of the cDNAs of 5-HT4(a), 5-HT4(b), 5-HT4(c) and 5-T4(d) was subcloned; expressed in transfected cells; host or cells: COS-7 cells, transient, pRC/CMV vector; cDNA amplified from human brain and ileum RNA
The description is as above. As to the method: as §1, §3, §4, §5

Another experiment has as its target receptor 5-HT4(c) (Homo sapiens, UniProt Q13639). Described as above. Also noted: The entire coding region of the cDNAs of 5-HT4(a), 5-HT4(b), 5-HT4(c) and 5-T4(d) was subcloned; expressed in transfected cells; host or cells: COS-7 cells, transient, pRC/CMV vector; cDNA amplified from human brain and ileum RNA. As for the experimental part: as §1, §3, §4, §5

A further experiment addresses receptor 5-HT4(d) (Homo sapiens, UniProt Q13639). The experiment is described as above. Also noted: The entire coding region of the cDNAs of 5-HT4(a), 5-HT4(b), 5-HT4(c) and 5-T4(d) was subcloned; expressed in transfected cells; host or cells: COS-7 cells, transient, pRC/CMV vector; cDNA amplified from human brain and ileum RNA. As for the experimental part:
as §1, §3, §4, §5

The subject of experiment [4] is cells expressing the isoforms of the receptor 5-HT4. In words: cAMP formation in transiently transfected COS-7 cells, statement for all isoforms together. It is filed as cell-based, human. As to the method:
The entire coding region of the cDNAs of 5-HT4(a), 5-HT4(b), 5-HT4(c) and 5-T4(d) was subcloned into a mammalian expression vector pRC/CMV (Invitrogen, Carlsbad, Calif.). The transfections were carried out using polyethyleneimine (PEI) as described in Boussif et al. (1995). The cells were transfected using a mixture of DNA and of PEI in a ratio of 20 μmol of PEI/mg of DNA in 0.9% NaCl. […] The cells transfected with the receptor 5-HT4 cDNA constructs were compared with the “blank”-transfected cells, which were exposed to the unmodified pRC/CMV plasmid. […] The reaction was stopped by aspiration of the medium and addition of 500 μl of ice-cold ethanol. After one hour at room temperature, the cells were scraped, and everything was collected and freeze-dried. The pellet was resuspended in 350 μl of PBS and centrifuged for 5 min at 300 g. The cAMP was quantified in the supernatant using a radioimmunological assay (E.R.I.A. assay kit from Pasteur Diagnostics 79830). Student's t tests were carried out using the program Quick TEst.

The mark [5] stands for this setting: 5-HT4(a), COS-7 membranes, [3H]GR113808 at 50% of Kd, read-out: Ki, competition for [3H]GR113808 binding.
The mark [6] stands for this setting: 5-HT4(b), COS-7 membranes, [3H]GR113808 at 50% of Kd, read-out: Ki, competition for [3H]GR113808 binding.
Setting [7] is: 5-HT4(c), COS-7 membranes, [3H]GR113808 at 50% of Kd, read-out: Ki, competition for [3H]GR113808 binding.
[8] abbreviates: 5-HT4(d), COS-7 membranes, [3H]GR113808 at 50% of Kd, read-out: Ki, competition for [3H]GR113808 binding.
Setting [9] is: read-out: Ki, competition for [3H]GR113808 binding.

Where a name gives a salt, the structure may show the parent alone. Read-outs that look alike come from different tables or passages of the source.

Sequence of receptor 5-HT4(d) (Q13639 1-360 isoform Q13639-3): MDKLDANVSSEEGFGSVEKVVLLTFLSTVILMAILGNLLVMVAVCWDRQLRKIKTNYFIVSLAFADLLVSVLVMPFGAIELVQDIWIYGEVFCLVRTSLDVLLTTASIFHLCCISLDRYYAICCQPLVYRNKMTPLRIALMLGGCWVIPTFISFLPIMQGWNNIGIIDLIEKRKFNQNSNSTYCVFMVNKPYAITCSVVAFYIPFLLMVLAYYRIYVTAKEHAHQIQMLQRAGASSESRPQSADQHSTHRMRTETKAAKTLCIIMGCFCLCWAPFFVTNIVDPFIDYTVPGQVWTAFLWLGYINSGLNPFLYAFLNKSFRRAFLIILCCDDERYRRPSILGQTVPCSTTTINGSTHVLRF
T2 sequence (Q13639 whole entry): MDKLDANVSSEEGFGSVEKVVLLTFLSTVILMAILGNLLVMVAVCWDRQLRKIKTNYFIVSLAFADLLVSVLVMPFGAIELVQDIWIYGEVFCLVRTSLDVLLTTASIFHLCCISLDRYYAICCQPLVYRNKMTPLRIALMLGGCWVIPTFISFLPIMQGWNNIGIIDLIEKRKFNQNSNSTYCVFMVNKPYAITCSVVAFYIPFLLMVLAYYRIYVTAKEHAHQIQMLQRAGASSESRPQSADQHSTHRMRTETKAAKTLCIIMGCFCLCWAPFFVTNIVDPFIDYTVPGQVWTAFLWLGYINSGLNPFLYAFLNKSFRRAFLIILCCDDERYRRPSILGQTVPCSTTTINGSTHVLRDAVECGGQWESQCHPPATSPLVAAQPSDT
Sequence of receptor 5-HT4(c) (Q13639 1-380 isoform Q13639-4): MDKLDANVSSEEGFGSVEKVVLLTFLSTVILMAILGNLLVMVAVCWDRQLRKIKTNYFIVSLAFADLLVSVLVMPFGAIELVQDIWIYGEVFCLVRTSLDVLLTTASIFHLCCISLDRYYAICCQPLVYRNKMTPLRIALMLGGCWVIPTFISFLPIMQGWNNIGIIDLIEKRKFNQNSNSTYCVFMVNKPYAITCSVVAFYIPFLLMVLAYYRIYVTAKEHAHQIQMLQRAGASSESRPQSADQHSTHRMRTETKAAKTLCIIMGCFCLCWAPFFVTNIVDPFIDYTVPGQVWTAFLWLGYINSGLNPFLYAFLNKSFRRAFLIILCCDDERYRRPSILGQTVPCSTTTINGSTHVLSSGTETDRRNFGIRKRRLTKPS

`COc1cc(N)c(Cl)cc1C(=O)NC1CCN2CCCC1C2` (single isomer, unassigned; (+)) [Renzapride, (+)endo-4-amino-5-chloro-2-methoxy-N-(1-azabicyclo[3.3.1]non-4-yl)benzamide, hydrochloride]: on receptor 5-HT4(a) [1], the “increase in cAMP concentration” value is 56%. Moreover, the “effect on basal adenylate cyclase activity / basal cAMP levels” value in experiment [2] was “no significant effect”.

As a reminder, the Ki is the equilibrium dissociation constant of an inhibitor or competing ligand from its target. As to `COc1ccc2[nH]cc(CCN)c2c1` [5-MeOT, 5-methoxytryptamine], the Ki at receptor 5-HT4(a) [3] (setting [5]) is 2080 ± 508 nM; on receptor 5-HT4(b) (setting [6]), 2440 ± 510 nM; at receptor 5-HT4(c) (setting [7]) it was 1020 ± 236 nM; at receptor 5-HT4(d) (setting [8]), 553 ± 149 nM.

With `CCn1c(=O)n(C(=O)N[C@H]2C[C@H]3CC[C@@H](C2)N3C)c2ccccc21` [BIMU1], the Ki at receptor 5-HT4(a) [3] came out at 373 ± 119 nM; at receptor 5-HT4(b), 123 ± 9 nM; at receptor 5-HT4(c) it was 66 ± 8.37 nM; on receptor 5-HT4(d), 38.8 ± 12 nM.

As for `Cn1cc(C(=O)OCC2CCN(CCNS(C)(=O)=O)CC2)c2ccccc21` [GR113808, ([1-[2-(methylsulphonyl)amino]ethyl]-4-piperidyl)methyl 1-methyl-1H-indole-3-carboxylate], the Ki at receptor 5-HT4(a) [3] (setting [5]) was 0.33 ± 0.033 nM; on receptor 5-HT4(b) (setting [6]), 0.53 ± 0.1 nM; on receptor 5-HT4(c) (setting [7]), 0.41 ± 0.13 nM; on receptor 5-HT4(d) (setting [8]), 0.078 nM.

`COc1cc(N)c(Cl)cc1C(=O)OCCN1CCCCC1` [ML10302, 2-(1-piperidyl)ethyl 4-amino-5-chloro-2-methoxy-benzoate]: in experiment [2], the “effect on basal adenylate cyclase activity / basal cAMP levels” value is on record as “no significant effect”. For the same molecule, the “stimulatory effect on cAMP as % of the stimulatory effect of 5-HT” value in experiment [4] (1 μM, COS-7 cells expressing the isoforms of the receptor 5-HT4) was 28 to 34%. In experiment [4] (preincubation with 1 μM prior to 5-HT, COS-7 cells expressing the isoforms), the “antagonism of the capacity of 5-HT (1 μM) to increase basal cAMP levels” value is reported as “significantly antagonizes”.

On to `COc1cc(N)c(Cl)cc1C(=O)NC1CN2CCC1CC2` (stereo not drawn) [Zacopride, 4-amino-5-chloro-2-methoxy-N-(1-azabicyclo-[2,2,2]octo-3-yl)benzamide, hydrochloride], for which the inhibition constant (Ki) on receptor 5-HT4(a) [3] (setting [5]) was 7750 ± 1620 nM; on receptor 5-HT4(b) (setting [9]), 11500 ± 950 nM; on receptor 5-HT4(c) (setting [9]), 10600 ± 2160 nM; on receptor 5-HT4(d) (setting [8]), 3600 ± 1840 nM.
